# The kinase profiling compilation of Christmann-Franck et al. (2016)
# Experiments:
# Experiment in all cases: radiometric filter-binding kinase assay, Kinase HotSpot
# Details in all cases: compound 0.5 µM; ATP 10 µM
# AKT2 (human) = AKT2 (human) (UniProt P31751)
# AURKB (human) = AURKB (human) (UniProt Q96GD4)
# AXL (human) = AXL (human) (UniProt P30530)
# CAMK2G (human) = CAMK2G (human) (UniProt Q13555)
# CDK7 CCNH MNAT1 (human) = CDK7 CCNH MNAT1 (human) (UniProt P50613+P51948+P51946)
# CSF1R (human) = CSF1R (human) (UniProt P07333)
# CSNK1G1 (human) = CSNK1G1 (human) (UniProt Q9HCP0)
# DYRK3 (human) = DYRK3 (human) (UniProt O43781)
# EPHA4 (human) = EPHA4 (human) (UniProt P54764)
# EPHB1 (human) = EPHB1 (human) (UniProt P54762)
# ERBB4 (human) = ERBB4 (human) (UniProt Q15303)
# HCK (human) = HCK (human) (UniProt P08631)
# HIPK2 (human) = HIPK2 (human) (UniProt Q9H2X6)
# INSRR (human) = INSRR (human) (UniProt P14616)
# ITK (human) = ITK (human) (UniProt Q08881)
# JAK2 JH1 JH2 (human) = JAK2 JH1 JH2 (human) (UniProt O60674)
# MAP2K2 (human) = MAP2K2 (human) (UniProt P36507)
# MAPK12 (human) = MAPK12 (human) (UniProt P53778)
# MAPK3 (human) = MAPK3 (human) (UniProt P27361)
# MAPKAPK3 (human) = MAPKAPK3 (human) (UniProt Q16644)
# MAPKAPK5 (human) = MAPKAPK5 (human) (UniProt Q8IW41)
# MERTK (human) = MERTK (human) (UniProt Q12866)
# MLTK (human) = MLTK (human) (UniProt Q9NYL2)
# NEK4 (human) = NEK4 (human) (UniProt P51957)
# NUAK1 (human) = NUAK1 (human) (UniProt O60285)
# NUAK2 (human) = NUAK2 (human) (UniProt Q9H093)
# PAK2 (human) = PAK2 (human) (UniProt Q13177)
# PASK (human) = PASK (human) (UniProt Q96RG2)
# PDGFRA (human) = PDGFRA (human) (UniProt P16234)
# PDPK1 (human) = PDPK1 (human) (UniProt O15530)
# PHKG2 (human) = PHKG2 (human) (UniProt P15735)
# PKN1 (human) = PKN1 (human) (UniProt Q16512)
# PKN2 (human) = PKN2 (human) (UniProt Q16513)
# PRKACA (human) = PRKACA (human) (UniProt P17612)
# PRKCE (human) = PRKCE (human) (UniProt Q02156)
# PTK2 (human) = PTK2 (human) (UniProt Q05397)
# PTK2B (human) = PTK2B (human) (UniProt Q14289)
# SGK3 (human) = SGK3 (human) (UniProt Q96BR1)
# SRPK1 (human) = SRPK1 (human) (UniProt Q96SB4)
# STK10 (human) = STK10 (human) (UniProt O94804)
# WNK3 (human) = WNK3 (human) (UniProt Q9BYP7)
# EPHB4 (human) = EPHB4 (human) (UniProt P54760)
# Sequence of PDGFRA (human) (P16234 whole entry, looked up): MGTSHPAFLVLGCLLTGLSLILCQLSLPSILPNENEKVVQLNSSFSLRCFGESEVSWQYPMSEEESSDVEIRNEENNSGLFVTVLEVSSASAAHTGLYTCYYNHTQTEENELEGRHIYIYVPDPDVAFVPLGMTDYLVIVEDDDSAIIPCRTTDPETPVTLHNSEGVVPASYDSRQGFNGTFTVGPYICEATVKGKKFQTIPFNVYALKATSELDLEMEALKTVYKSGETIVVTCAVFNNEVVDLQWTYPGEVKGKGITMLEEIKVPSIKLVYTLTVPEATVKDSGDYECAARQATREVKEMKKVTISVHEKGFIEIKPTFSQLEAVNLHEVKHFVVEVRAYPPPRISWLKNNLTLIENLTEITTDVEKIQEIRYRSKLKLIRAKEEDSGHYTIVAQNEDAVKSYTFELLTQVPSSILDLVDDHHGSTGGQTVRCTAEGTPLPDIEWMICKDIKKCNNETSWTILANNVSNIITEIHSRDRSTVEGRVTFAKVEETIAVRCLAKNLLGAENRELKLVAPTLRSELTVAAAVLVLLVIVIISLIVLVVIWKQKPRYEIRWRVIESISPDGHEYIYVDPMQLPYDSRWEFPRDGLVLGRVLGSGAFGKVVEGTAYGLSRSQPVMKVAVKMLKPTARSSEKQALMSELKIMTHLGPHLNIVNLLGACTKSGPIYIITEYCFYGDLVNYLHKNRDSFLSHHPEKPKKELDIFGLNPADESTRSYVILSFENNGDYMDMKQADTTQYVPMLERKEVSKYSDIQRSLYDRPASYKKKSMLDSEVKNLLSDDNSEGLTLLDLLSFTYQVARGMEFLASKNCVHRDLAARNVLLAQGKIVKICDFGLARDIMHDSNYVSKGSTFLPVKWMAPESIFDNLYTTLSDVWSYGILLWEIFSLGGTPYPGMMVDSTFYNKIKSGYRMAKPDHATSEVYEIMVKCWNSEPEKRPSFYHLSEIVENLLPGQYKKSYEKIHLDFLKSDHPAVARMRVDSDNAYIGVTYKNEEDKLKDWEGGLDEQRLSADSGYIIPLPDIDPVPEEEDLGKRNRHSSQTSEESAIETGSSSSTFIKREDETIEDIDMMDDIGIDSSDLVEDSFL
# Sequence of PASK (human) (Q96RG2 whole entry, looked up): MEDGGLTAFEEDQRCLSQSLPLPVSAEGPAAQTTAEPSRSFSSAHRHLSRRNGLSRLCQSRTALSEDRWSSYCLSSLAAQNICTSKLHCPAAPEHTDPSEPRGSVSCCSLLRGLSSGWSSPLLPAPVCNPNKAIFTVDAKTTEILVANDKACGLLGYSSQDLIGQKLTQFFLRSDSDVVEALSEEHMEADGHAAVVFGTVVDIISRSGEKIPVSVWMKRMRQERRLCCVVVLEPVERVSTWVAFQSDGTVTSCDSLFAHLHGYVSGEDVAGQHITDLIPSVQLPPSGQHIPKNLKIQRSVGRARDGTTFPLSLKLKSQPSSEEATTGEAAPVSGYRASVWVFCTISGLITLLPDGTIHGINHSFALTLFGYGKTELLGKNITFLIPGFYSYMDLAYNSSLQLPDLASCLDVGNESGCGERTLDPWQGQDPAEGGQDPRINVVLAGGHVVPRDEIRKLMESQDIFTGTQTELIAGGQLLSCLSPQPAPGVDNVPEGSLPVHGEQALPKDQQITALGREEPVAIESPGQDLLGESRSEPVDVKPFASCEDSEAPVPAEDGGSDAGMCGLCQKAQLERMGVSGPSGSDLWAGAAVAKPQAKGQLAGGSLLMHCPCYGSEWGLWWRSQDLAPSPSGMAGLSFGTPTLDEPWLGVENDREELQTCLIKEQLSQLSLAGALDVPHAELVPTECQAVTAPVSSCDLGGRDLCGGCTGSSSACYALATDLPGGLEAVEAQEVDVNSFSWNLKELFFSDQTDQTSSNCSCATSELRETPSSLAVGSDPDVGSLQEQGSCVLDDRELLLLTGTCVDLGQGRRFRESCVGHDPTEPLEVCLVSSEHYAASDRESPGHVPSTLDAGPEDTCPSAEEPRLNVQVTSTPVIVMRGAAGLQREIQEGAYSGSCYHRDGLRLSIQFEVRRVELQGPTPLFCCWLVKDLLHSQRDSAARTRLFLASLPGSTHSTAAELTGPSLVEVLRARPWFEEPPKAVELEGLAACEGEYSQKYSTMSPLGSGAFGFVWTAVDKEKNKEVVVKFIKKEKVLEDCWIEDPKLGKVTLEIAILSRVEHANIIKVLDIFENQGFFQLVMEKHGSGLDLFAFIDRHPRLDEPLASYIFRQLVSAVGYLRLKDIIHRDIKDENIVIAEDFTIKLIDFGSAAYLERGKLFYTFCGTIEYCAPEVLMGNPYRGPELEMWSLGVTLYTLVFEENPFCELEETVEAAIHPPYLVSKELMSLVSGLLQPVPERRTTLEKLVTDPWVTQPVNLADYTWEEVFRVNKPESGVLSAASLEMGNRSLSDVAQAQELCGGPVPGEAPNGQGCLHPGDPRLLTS
# Sequence of MAPK12 (human) (P53778 whole entry, looked up): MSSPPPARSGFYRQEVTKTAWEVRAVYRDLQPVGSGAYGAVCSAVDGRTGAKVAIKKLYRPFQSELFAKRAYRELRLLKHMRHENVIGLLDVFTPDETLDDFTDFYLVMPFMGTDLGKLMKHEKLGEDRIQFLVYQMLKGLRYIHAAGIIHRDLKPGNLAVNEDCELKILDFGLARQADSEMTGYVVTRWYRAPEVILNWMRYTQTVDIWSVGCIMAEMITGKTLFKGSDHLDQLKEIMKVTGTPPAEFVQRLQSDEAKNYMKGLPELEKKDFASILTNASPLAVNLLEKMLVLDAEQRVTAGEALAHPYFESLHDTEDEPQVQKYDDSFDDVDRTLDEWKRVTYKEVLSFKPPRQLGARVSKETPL
# Sequence of MAPK3 (human) (P27361 whole entry, looked up): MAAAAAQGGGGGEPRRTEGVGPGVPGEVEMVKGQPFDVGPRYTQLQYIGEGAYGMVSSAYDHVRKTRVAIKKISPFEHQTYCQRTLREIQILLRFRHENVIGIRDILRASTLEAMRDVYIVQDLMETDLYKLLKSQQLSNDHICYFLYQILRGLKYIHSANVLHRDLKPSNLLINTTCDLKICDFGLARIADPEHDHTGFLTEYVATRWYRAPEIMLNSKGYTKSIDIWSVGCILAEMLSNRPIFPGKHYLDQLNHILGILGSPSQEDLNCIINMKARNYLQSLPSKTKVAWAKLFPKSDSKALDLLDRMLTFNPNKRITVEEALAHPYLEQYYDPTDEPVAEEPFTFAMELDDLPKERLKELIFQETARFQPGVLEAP
# Sequence of HCK (human) (P08631 whole entry, looked up): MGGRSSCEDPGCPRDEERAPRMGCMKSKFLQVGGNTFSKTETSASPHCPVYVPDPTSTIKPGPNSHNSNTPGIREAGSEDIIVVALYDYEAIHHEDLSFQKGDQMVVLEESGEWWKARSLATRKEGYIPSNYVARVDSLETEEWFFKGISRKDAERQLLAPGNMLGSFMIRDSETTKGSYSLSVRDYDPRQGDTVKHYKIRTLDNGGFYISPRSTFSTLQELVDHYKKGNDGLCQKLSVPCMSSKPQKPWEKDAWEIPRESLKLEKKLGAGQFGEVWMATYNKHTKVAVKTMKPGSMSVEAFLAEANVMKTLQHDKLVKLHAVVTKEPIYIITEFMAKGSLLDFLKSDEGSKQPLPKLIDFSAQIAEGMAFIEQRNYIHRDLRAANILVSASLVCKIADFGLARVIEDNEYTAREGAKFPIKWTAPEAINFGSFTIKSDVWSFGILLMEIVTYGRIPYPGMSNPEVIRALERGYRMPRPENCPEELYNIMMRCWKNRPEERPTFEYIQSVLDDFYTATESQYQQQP
# Sequence of ERBB4 (human) (Q15303 whole entry, looked up): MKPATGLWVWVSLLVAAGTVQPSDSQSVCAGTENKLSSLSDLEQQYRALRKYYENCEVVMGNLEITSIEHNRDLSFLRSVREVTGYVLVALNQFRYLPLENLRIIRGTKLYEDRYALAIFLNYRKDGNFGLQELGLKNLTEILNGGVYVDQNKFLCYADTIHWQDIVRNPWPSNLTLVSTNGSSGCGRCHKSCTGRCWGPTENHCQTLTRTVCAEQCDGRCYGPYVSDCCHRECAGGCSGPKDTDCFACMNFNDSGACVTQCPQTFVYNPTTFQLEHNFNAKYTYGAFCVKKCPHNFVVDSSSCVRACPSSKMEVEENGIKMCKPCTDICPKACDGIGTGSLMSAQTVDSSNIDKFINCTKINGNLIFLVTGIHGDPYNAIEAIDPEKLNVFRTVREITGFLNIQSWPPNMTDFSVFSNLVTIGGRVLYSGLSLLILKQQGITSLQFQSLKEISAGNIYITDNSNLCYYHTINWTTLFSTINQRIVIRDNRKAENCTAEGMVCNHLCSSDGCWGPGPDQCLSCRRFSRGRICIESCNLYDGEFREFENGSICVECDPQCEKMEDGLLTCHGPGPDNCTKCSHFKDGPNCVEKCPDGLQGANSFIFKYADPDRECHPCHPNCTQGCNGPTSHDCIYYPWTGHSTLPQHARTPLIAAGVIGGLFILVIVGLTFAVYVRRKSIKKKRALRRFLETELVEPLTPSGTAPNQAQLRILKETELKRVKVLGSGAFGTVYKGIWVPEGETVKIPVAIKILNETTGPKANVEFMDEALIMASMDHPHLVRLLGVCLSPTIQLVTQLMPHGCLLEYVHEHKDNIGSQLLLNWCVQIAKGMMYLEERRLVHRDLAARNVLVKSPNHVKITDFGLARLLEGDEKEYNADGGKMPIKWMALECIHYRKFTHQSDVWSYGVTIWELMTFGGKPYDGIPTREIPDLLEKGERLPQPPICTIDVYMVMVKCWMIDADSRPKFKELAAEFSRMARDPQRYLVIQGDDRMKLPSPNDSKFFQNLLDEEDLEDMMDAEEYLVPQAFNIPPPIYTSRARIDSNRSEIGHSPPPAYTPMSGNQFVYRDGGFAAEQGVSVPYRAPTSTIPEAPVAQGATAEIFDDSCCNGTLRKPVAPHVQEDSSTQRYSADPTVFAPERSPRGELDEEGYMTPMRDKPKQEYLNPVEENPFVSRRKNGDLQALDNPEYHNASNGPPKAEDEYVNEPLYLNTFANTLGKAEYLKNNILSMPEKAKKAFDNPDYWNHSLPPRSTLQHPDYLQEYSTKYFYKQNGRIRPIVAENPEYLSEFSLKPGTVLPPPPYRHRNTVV
structure (smiles),measurement,setting,value
Nc1cccc(-c2cc3c(Oc4cccc(O)c4)ncnc3[nH]2)c1,residual activity,AKT2 (human),109%
same,residual activity,AURKB (human),71.9%
same,residual activity,AXL (human),75.9%
same,residual activity,CAMK2G (human),105%
same,residual activity,CDK7 CCNH MNAT1 (human),94.2%
same,residual activity,CSF1R (human),13.6%
same,residual activity,CSNK1G1 (human),102%
same,residual activity,DYRK3 (human),89.8%
same,residual activity,EPHA4 (human),48.3%
same,residual activity,EPHB1 (human),40%
same,residual activity,ERBB4 (human),75.8%
same,residual activity,HCK (human),6.65%
same,residual activity,HIPK2 (human),100%
same,residual activity,INSRR (human),96.3%
same,residual activity,ITK (human),102%
same,residual activity,JAK2 JH1 JH2 (human),85.4%
same,residual activity,MAP2K2 (human),104%
same,residual activity,MAPK12 (human),88.6%
same,residual activity,MAPK3 (human),86.9%
same,residual activity,MAPKAPK3 (human),97.6%
same,residual activity,MAPKAPK5 (human),125%
same,residual activity,MERTK (human),63.8%
same,residual activity,MLTK (human),13.9%
same,residual activity,NEK4 (human),91.4%
same,residual activity,NUAK1 (human),37%
same,residual activity,NUAK2 (human),90.3%
same,residual activity,PAK2 (human),88.9%
same,residual activity,PASK (human),96.2%
same,residual activity,PDGFRA (human),73.6%
same,residual activity,PDPK1 (human),86.8%
same,residual activity,PHKG2 (human),109%
same,residual activity,PKN1 (human),105%
same,residual activity,PKN2 (human),72%
same,residual activity,PRKACA (human),92.3%
same,residual activity,PRKCE (human),97.4%
same,residual activity,PTK2 (human),88.4%
same,residual activity,PTK2B (human),65.6%
same,residual activity,SGK3 (human),117%
same,residual activity,SRPK1 (human),107%
same,residual activity,STK10 (human),45.8%
same,residual activity,WNK3 (human),88.5%
CC(C)N(CCC(=O)c1ccc2ccccc2c1)Cc1ccccc1,residual activity,AKT2 (human),96.5%
same,residual activity,AURKB (human),101%
same,residual activity,AXL (human),108%
same,residual activity,CAMK2G (human),97.7%
same,residual activity,CDK7 CCNH MNAT1 (human),98%
same,residual activity,CSF1R (human),98.6%
same,residual activity,CSNK1G1 (human),101%
same,residual activity,DYRK3 (human),107%
same,residual activity,EPHA4 (human),94.5%
same,residual activity,EPHB1 (human),96.8%
same,residual activity,EPHB4 (human),102%
same,residual activity,ERBB4 (human),91.7%
same,residual activity,HCK (human),94.9%
same,residual activity,HIPK2 (human),107%
same,residual activity,INSRR (human),90.1%
same,residual activity,ITK (human),89.9%
same,residual activity,JAK2 JH1 JH2 (human),97.5%
same,residual activity,MAP2K2 (human),92.5%
same,residual activity,MAPK12 (human),96.2%
same,residual activity,MAPK3 (human),98.5%
same,residual activity,MAPKAPK3 (human),95.7%
same,residual activity,MAPKAPK5 (human),96.6%
same,residual activity,MERTK (human),106%
same,residual activity,MLTK (human),90.5%
same,residual activity,NEK4 (human),95.7%
same,residual activity,NUAK1 (human),97.1%
same,residual activity,NUAK2 (human),85.4%
same,residual activity,PAK2 (human),107%
same,residual activity,PASK (human),97.3%
same,residual activity,PDGFRA (human),96.5%
same,residual activity,PHKG2 (human),99.9%
same,residual activity,PKN1 (human),107%
same,residual activity,PKN2 (human),98.7%
same,residual activity,PRKCE (human),95%
same,residual activity,PTK2 (human),96.3%
same,residual activity,PTK2B (human),106%
same,residual activity,SGK3 (human),106%
same,residual activity,SRPK1 (human),103%
same,residual activity,STK10 (human),93.6%
same,residual activity,WNK3 (human),97%
COc1ccc2c(c[n+](C)c3c4cc5c(cc4ccc23)OCO5)c1OC,residual activity,AKT2 (human),93.6%
same,residual activity,AURKB (human),99.2%
same,residual activity,AXL (human),98%
same,residual activity,CAMK2G (human),95.9%
same,residual activity,CDK7 CCNH MNAT1 (human),91.9%
same,residual activity,CSF1R (human),99%
same,residual activity,CSNK1G1 (human),106%
same,residual activity,DYRK3 (human),101%
same,residual activity,EPHA4 (human),103%
same,residual activity,EPHB1 (human),90.4%
same,residual activity,EPHB4 (human),91.7%
same,residual activity,ERBB4 (human),99.9%
same,residual activity,HIPK2 (human),92.6%
same,residual activity,INSRR (human),91.8%
same,residual activity,ITK (human),99.2%
same,residual activity,JAK2 JH1 JH2 (human),102%
same,residual activity,MAP2K2 (human),95.6%
same,residual activity,MAPK12 (human),100%
same,residual activity,MAPK3 (human),108%
same,residual activity,MAPKAPK3 (human),83%
same,residual activity,MAPKAPK5 (human),83.5%
same,residual activity,MERTK (human),90.8%
same,residual activity,MLTK (human),94.7%
same,residual activity,NEK4 (human),96.6%
same,residual activity,NUAK1 (human),96.6%
same,residual activity,NUAK2 (human),98.9%
same,residual activity,PAK2 (human),101%
same,residual activity,PASK (human),91.1%
same,residual activity,PDGFRA (human),101%
same,residual activity,PDPK1 (human),98.2%
same,residual activity,PHKG2 (human),94.8%
same,residual activity,PKN1 (human),101%
same,residual activity,PKN2 (human),93.3%
same,residual activity,PRKACA (human),100%
same,residual activity,PRKCE (human),93.6%
same,residual activity,PTK2 (human),102%
same,residual activity,PTK2B (human),92.3%
same,residual activity,SGK3 (human),96%
same,residual activity,SRPK1 (human),95.3%
same,residual activity,STK10 (human),92.7%
same,residual activity,WNK3 (human),101%
CCN(CC)C(=O)c1ccc(Nc2nc(OCC3CCCCC3)c3nc[nH]c3n2)cc1,residual activity,AKT2 (human),92%
same,residual activity,AURKB (human),30.1%
same,residual activity,AXL (human),80.8%
same,residual activity,CAMK2G (human),95.2%
same,residual activity,CDK7 CCNH MNAT1 (human),87.6%
same,residual activity,CSF1R (human),5.73%
same,residual activity,CSNK1G1 (human),68.5%
same,residual activity,DYRK3 (human),97.6%
same,residual activity,EPHA4 (human),86.7%
same,residual activity,EPHB1 (human),75.4%
same,residual activity,EPHB4 (human),85%
same,residual activity,ERBB4 (human),91%
same,residual activity,HCK (human),63.1%
same,residual activity,HIPK2 (human),92.4%
same,residual activity,INSRR (human),80.8%
same,residual activity,ITK (human),57.3%
same,residual activity,JAK2 JH1 JH2 (human),4.21%
same,residual activity,MAP2K2 (human),94%
same,residual activity,MAPK12 (human),99.4%
same,residual activity,MAPK3 (human),101%
same,residual activity,MAPKAPK3 (human),103%
same,residual activity,MAPKAPK5 (human),87.8%
same,residual activity,MERTK (human),71.6%
same,residual activity,MLTK (human),91.4%
same,residual activity,NEK4 (human),87.9%
same,residual activity,NUAK1 (human),3.67%
same,residual activity,NUAK2 (human),23.1%
same,residual activity,PASK (human),103%
same,residual activity,PDGFRA (human),66.6%
same,residual activity,PDPK1 (human),69.1%
same,residual activity,PHKG2 (human),96.6%
same,residual activity,PKN1 (human),78.9%
same,residual activity,PKN2 (human),91.8%
same,residual activity,PRKACA (human),93.7%
same,residual activity,PRKCE (human),76.6%
same,residual activity,PTK2 (human),76.9%
same,residual activity,PTK2B (human),48.7%
same,residual activity,SGK3 (human),97.2%
same,residual activity,SRPK1 (human),91.7%
same,residual activity,STK10 (human),57.3%
same,residual activity,WNK3 (human),80.6%
CCN(CC)CCNC(=O)c1c(C)[nH]c(/C=C2\C(=O)Nc3ccc(F)cc32)c1C,residual activity,AURKB (human),48.7%
same,residual activity,AXL (human),27.4%
same,residual activity,CAMK2G (human),25.1%
same,residual activity,CDK7 CCNH MNAT1 (human),73.4%
same,residual activity,CSF1R (human),7.28%
same,residual activity,DYRK3 (human),58.2%
same,residual activity,EPHA4 (human),84.5%
same,residual activity,EPHB1 (human),53.6%
same,residual activity,ERBB4 (human),94.8%
same,residual activity,HCK (human),40%
same,residual activity,HIPK2 (human),41.3%
same,residual activity,INSRR (human),21.7%
same,residual activity,ITK (human),64.3%
same,residual activity,JAK2 JH1 JH2 (human),88.8%
same,residual activity,MAP2K2 (human),25.4%
same,residual activity,MAPK12 (human),95.8%
same,residual activity,MAPKAPK3 (human),102%
same,residual activity,MAPKAPK5 (human),82.7%
same,residual activity,MERTK (human),39.8%
same,residual activity,NEK4 (human),94.1%
same,residual activity,NUAK1 (human),2.75%
same,residual activity,NUAK2 (human),65%
same,residual activity,PAK2 (human),98.1%
same,residual activity,PASK (human),102%
same,residual activity,PDGFRA (human),10.9%
same,residual activity,PDPK1 (human),81.6%
same,residual activity,PHKG2 (human),20.6%
same,residual activity,PKN1 (human),71.4%
same,residual activity,PKN2 (human),89.1%
same,residual activity,PRKACA (human),89.1%
same,residual activity,PRKCE (human),98%
same,residual activity,PTK2B (human),38.3%
same,residual activity,SGK3 (human),101%
same,residual activity,SRPK1 (human),97%
same,residual activity,STK10 (human),31.2%
same,residual activity,WNK3 (human),94.3%
